In assay [1] the target is T1, recombinant CPBAg1 (Anopheles gambiae, UniProt Q702G3).
T1 sequence (Q702G3 20-423): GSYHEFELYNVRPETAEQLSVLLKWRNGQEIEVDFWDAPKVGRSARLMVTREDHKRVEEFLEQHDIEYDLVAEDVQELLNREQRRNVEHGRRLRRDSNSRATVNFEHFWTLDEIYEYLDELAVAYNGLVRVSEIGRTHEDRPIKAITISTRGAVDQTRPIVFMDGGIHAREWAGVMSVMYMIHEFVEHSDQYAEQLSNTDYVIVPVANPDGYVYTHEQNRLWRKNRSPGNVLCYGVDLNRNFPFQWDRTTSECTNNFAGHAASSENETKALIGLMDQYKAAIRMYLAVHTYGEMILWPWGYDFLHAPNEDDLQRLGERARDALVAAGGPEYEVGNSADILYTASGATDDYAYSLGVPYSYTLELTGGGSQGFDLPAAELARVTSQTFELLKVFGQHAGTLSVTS
Nature of the assay: Effect of inhibitors on CPBAg1 activity (Hip-Arg as substrate). Type of assay: biochemical. Particulars: for Activity (%): relative to control without inhibitor. The protocol: (§1) Carboxypeptidase activity was determined using the synthetic di-peptide substrates Hippuryl-Arginine (Hip-Arg), Hippuryl-Lysine (Hip-Lys) as carboxypeptidase B substrates and Hippuryl-Phenylalanine (Hip-Phe) as carboxypeptidase A substrate. All reagents were purchased from Sigma. Activities were assayed in 20 μl E buffer (100 mM NaCl/50 mM Hepes/100 μM ZnCl2 pH 7.2) containing 1 mM Hip-Arg, Hip-Lys or Hip-Phe. The reaction was initiated by adding an equal volume of His-tagged CPBAg1 (5 ng/μl in E buffer), incubated at 25° C. for 10-40 min, and stopped by the addition of 20 μl Ninhydrin reagent (Sigma, Lyon, France). The rate of the reaction was measured by estimating the amount of released amino acids using the ninhydrin procedure (60). One unit of enzyme activity was defined as μmol of amino acids released/min.
Inhibitory effects of the chelating agent 1,10-phenantroline (Sigma, Lyon, France), and of the arginine analogue GEMSA (Guanidinoethylmercaptosuccinic acid, Fluka) on CPBAg1 activity were assayed as follows: different concentrations ([…]-1 mM) of inhibitors were preincubated at 25° C. for 30 min with the recombinant protein in E buffer before addition of Hip-Arg. Activity was measured as described above and was expressed as the percentage of activity relative to controls performed in absence of inhibitor.
Accordingly, CPBAg1 activity was inhibited by the active site-directed inhibitor GEMSA, which is an arginine analogue (Table 2). Activity of the purified recombinant CPBAg1 produced in the baculovirus was assayed after incubation with the zinc-carboxypeptidase inhibitor 1,10-phenantroline and the active site-directed inhibitor GEMSA, using Hyp-Arg as substrate. 100% activity corresponds to 1.1 and 0.8 unit/mg for 1,10-phenanatroline and GEMSA experiments, respectively.

Assay [2] has as its system P. falciparum development in An. gambiae. Nature of the assay: Effect of CPB substrates, free L-arginine and free L-lysine added to infected blood meal on P. falciparum development in An. gambiae. Type of assay: in vivo, Plasmodium falciparum. Particulars: day 7 post feeding; for % Infected mosquitoes (number of dissected mosquitoes): pooled infections; for Mean number of oocysts (range): per positive midgut. As to the method: Asymptomatic village people (Senegal) or schoolchildren aged ≦10 years old (Cameroon) were mass-screened to detect parasite carriers as previously described (12). All participants were volunteers and the consent of the children's parents was obtained. The experimental protocols were approved by the Cameroonian and the Senegalese National Ethics Committees. Infections and control experiments were performed with the blood from gametocyte carrier volunteers and with the blood from parasite-free donors. Venous blood (10 ml) was collected in a heparin coated and pre-warmed tube, centrifuged for 5 minutes, 5,000 rpm, at 37° C. and the serum of the patient immediatly replaced with a prewarmed AB serum collected from donors not living in a malaria endemic country. For each experiment, batches of 60 nulliparous female mosquitoes (5 days old) starved from sugar for 24 h were fed for 10 minutes, using the artificial membrane feeding technique (24). Fully engorged females were maintained at the insectarium until dissection. For each experiment a control batch of mosquitoes was used to determine the rate and intensity of infection by oocyst detection on day 7 post feeding. These experiments were performed with a control providing an infection rate close to or above 50%. As described below these basic procedures for infecting An. gambiae with P. falciparum were modified to answer specific issues.
Mosquito infections were performed with the blood from volunteers harboring a low gametocytaemia, as described above, except that 10 μl of L-arginine (Sigma), L-lysine (Sigma), Hippuryl-Lysine (Sigma) or Hippuryl-Arginine (Sigma) at 10, 1, 0.1 and 0.01 mM in TrisHCl 50 mM pH 7.2 were added to 500 μl of P. falciparum infected blood just before mosquito feeding. As a control 10 μl of TrisHCl 50 mM pH 7.2 was added to the P. falciparum infected blood. Triplicate experiments using the blood of three different gametocyte carriers were performed except for L-lysine where only two experiments could be performed. Rate and intensity of infection were scored on day 7 after blood feeding by detection of oocysts on the mosquito midgut wall.
For the data presented in Table 4 (below), An. gambiae were fed on P. falciparum infected blood supplemented with CPB substrates: Hippuryl-Arginine or Hippuryl-Lysine. Proportion of infected mosquitoes and oocyst counts per positive midgut were determined on day 7 post feeding. For each substrate and concentration tested, data from three independent infections were pooled. […] The infected blood harboured few gametocytes resulting in a low infection rate in the control and thereby allowing the detection of the effect of carboxypeptidase substrates.
For the data presented in Table 5 (below), An. gambiae were fed on P. falciparum infected blood supplemented with L-arginine or L-lysine at three different concentrations. Proportion of infected mosquitoes and oocyst counts per positive midgut were determined on day 7 post feeding. Data were pooled from three independent infections for L-arginine experiments, and from two independent infections for L-lysine experiments.

Assay [3] has as its target T1, recombinant CPBAg1. The assay is described as follows: Carboxypeptidase activity assay on recombinant CPBAg1 with di-peptide substrates. The format is biochemical. Particulars: for Enzyme activity: purified recombinant CPBAg1 from baculovirus, 1 mM substrate, 1 unit cleaves 1 μmol product/min. As to the method: as §1
Estimation of Km and kcat was carried out after assays over a 500-fold range of Hip-Arg concentration (0.02-10 mM). Each concentration was assayed in triplicate. The kinetic parameters were derived from iterative non-linear least square fits of the Michaelis-Menten equation using the experimental data (61). Confidence limits for the fitted values were determined by 100 Monte Carlo iterations using the experimental standard deviations on individual measurements.
Activity of the purified recombinant CPBAg1 produced in baculovirus was assayed against the carboxypeptidase B di-peptide substrates Hippuryl-Arginine (Hip-Arg) and Hippuryl-Lysine (Hip-Lys) and the carboxypeptidase A di-peptide substrate Hippuryl-Phenylalanine (Hip-Phe). 1 unit cleaves 1 μmol product/min.

Residues, ends and D or L forms follow the SMILES beside them. *: point of attachment. Bz = O=C(c1ccccc1)*

Turning to `N=C(N)NCCSC(CC(=O)O)C(=O)O` (stereo not drawn) [GEMSA, Guanidinoethylmercaptosuccinic acid], on recombinant CPBAg1 [1], the activity at 0.1 µM was found to be 96 ± 2%, the activity at 10 µM was determined as 41%, the activity at 100 µM worked out at 20 ± 2% and the activity at 1000 µM amounted to 7 ± 11%.
In the case of `NCCCC[C@H](N)C(=O)O` [L-lysine], the “% Infected mosquitoes (number of dissected mosquitoes)” value (“% Infected mosquitoes” below) in assay [2] (10 μM) is 62.9 (35) %; in assay [2] (100 μM), 42.1 (38) %; in assay [2] (1 mM) it was 30.5 (36) %. In addition, the entries for the “Mean number of oocysts (range)” value in assay [2] (10 μM), in assay [2] (100 μM) and in assay [2] (1 mM) were 8.2 (1-18), 4.9 (1-15) and 8.3 (1-44), respectively.
For `NCCCC[C@H](NC(=O)CNC(=O)c1ccccc1)C(=O)O` [Hippuryl-Lysine] (Bz-Gly-Lys-OH), the Enzyme activity on recombinant CPBAg1 [3] is reported as 0.24 ± 0.02 unit/mg. The “% Infected mosquitoes” value in assay [2] (100 μM) is on record as 41.1 (90) %; in assay [2] (1 mM) it was 46.7 (92) %; in assay [2] (10 mM), 23.8 (80) %. Further, the “Mean number of oocysts (range)” value in assay [2] (100 μM) was 2.4 (1-6); in assay [2] (1 mM), 2.5 (1-12); in assay [2] (10 mM), 2.1 (1-6).
On to `N=C(N)NCCC[C@H](NC(=O)CNC(=O)c1ccccc1)C(=O)O` [Hippuryl-Arginine] (Bz-Gly-Arg-OH), for which the Enzyme activity at recombinant CPBAg1 [3] came out at 0.83 ± 0.01 unit/mg. Also, the “activity against Hip-Arg relative to Hip-Lys” value on recombinant CPBAg1 [3] (ratio of enzyme activities of Table 1) is given as “approximately 3.5 times”. Besides, the results for the “% Infected mosquitoes” value in assay [2] (10 μM), in assay [2] (100 μM) and in assay [2] (1 mM) were 26.3 (80) %, 40.9 (88) % and 28 (50) %, respectively. Further, the “Mean number of oocysts (range)” value is recorded as 2.3 (1-10) in assay [2] (10 μM), 2.1 (1-7) in assay [2] (100 μM) and 2.1 (1-8) in assay [2] (1 mM).
For `c1cnc2c(c1)ccc1cccnc12` [1,10-phenantroline], the “Activity (%)” value was 96 ± 2% at recombinant CPBAg1 [1] (inhibitor 0.1 μM), 87 ± 8% at recombinant CPBAg1 [1] (inhibitor 10 μM), 35 ± 5% at recombinant CPBAg1 [1] (inhibitor 100 μM) and 24 ± 5% at recombinant CPBAg1 [1] (inhibitor 1000 μM).
In the case of `O=C(CNC(=O)c1ccccc1)N[C@@H](Cc1ccccc1)C(=O)O` [Hip-Phe, Hippuryl-Phenylalanine] (Bz-Gly-Phe-OH), the Enzyme activity at recombinant CPBAg1 [3] turned out to be 0 unit/mg.
Regarding `N=C(N)NCCC[C@H](N)C(=O)O` [L-arginine], the “% Infected mosquitoes” value in assay [2] (100 μM) is recorded as 38.4 (86) %; in assay [2] (1 mM), 34.4 (64) %; in assay [2] (10 mM), 55.2 (58) %. Besides, the “Mean number of oocysts (range)” value in assay [2] (100 μM) is reported as 3.2 (1-13); in assay [2] (1 mM) it was 5.3 (1-26); in assay [2] (10 mM) it was 5.2 (1-31).

For the origin of these results see US20050260219A1, “Carboxypeptidases B from anopheles gambiae. compositions comprising them, vaccine applications and use as therapeutical targets” (INSTITUT PASTEUR, priority 2004, published 2005).
